Measured values: patent EP2998295A1, “Aryl substituted naphthyl sulfonamide derivatives as keap-1 modulators for the treatment of diabetes, obesity, dyslipidemia and related disorders” (SANOFI, priority 2014, dated 2016)

Target: T1, human Keap1 kelch domain (amino acids Ala321 -Thr609) (Homo sapiens, UniProt Q14145)
T1 construct: human Keap1 kelch domain (amino acids Ala321 -Thr609)
Test: Keap1-Nrf2 peptide binding assay (fluorescence polarisation)
Conditions: Keap1 kelch domain 20 nM, fluorescently labeled Nrf2 peptide 50 nM
Procedure: A fluorescence polarisation assay was used to measure binding of the human Keap1 kelch domain (amino acids Ala321 -Thr609) to a fluorescently labeled peptide containing a Keap1 binding site of human Nrf2 (Alexa633-AFFAQLQLDEETGEFL; JPT Technologies, Berlin, Germany). Two microliters of test compound in reaction buffer (phosphate-buffered saline, 2 mM DL-dithiothreitol, 0.015 % (v/v) Brij-35) containing 6 % (v/v) DMSO were mixed with two microliters of the Keap1 kelch domain in reaction buffer in a black 384-well small volume microtiter plate and incubated at ambient temperature for 15 minutes. Thereafter, two microliters were added of the fluorescently labeled Nrf2 peptide in reaction buffer, and the mixture was incubated for a further 30 minutes at ambient temperature. Final concentrations of the Keap1 kelch domain and the fluorescently labeled Nrf2 peptide were 20 nM and 50 nM, respectively.
Fluorescence polarization (FP) was measured at excitation and emission wavelengths of 635 nm and 660 nm, respectively. Positive controls for binding (two microliters of reaction buffer containing 6 % (v/v) DMSO instead of test compound in the same buffer) and negative controls (as positive controls, but without Keap1 kelch domain) were included on each microtiter plate. Data were expressed as percent-inhibition values: percent inhibition = 100⋅(1(|FPcompound-FPnegative control|)/(|FPpositive control-FPnegative control|)) [formula]
IC50 values were determined by testing different compound concentrations and fitting the resulting percent-inhibition values to the following equation using XLFit4: percent inhibition = A + (B-A)/(1 + (((IC50)/([Compound])))^D) [formula]
Parameter A was set to zero, pre-fit values for parameters B and D were set to 100 and 1, respectively.

T1 sequence (Q14145 321-609): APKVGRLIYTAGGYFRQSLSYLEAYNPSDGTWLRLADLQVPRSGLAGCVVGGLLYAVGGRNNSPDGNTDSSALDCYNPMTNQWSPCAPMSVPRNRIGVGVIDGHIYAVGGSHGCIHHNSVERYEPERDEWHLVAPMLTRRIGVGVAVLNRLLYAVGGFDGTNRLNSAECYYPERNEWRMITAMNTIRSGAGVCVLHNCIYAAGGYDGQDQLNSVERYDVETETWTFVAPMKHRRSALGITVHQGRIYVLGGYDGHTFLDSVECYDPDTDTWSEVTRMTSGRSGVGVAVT

Row | Compound | IC50 [nM]
1 | Cc1cc(C)c(C)c(S(=O)(=O)Nc2cc(-c3ccc(C(=O)O)cc3)cc3ccccc23)c1C [Example 1, 4-[4-[(2,3,5,6-tetramethylphenyl)sulfonylamino]-2-naphthyl]benzoic acid] | 2500
2 | Cc1cc(C)c(C)c(S(=O)(=O)Nc2cc(-c3cccc(C(=O)O)c3)cc3ccccc23)c1C [Example 4, 3-[4-[(2,3,5,6-tetramethylphenyl)sulfonylamino]-2-naphthyl]benzoic acid] | 1500
3 | CC(=O)Nc1cc(C(=O)O)cc(-c2cc(NS(=O)(=O)c3c(C)c(C)cc(C)c3C)c3ccccc3c2)c1 [Example 9, 3-acetamido-5-[4-[(2,3,5,6-tetramethylphenyl)sulfonylamino]-2-naphthyl]benzoic acid] | 400

Same assay, conditions: Keap1 kelch domain 20 nM, fluorescently labeled Nrf2 peptide 50 nM, read-out: IC50

Row | Compound | IC50 [nM]
4 | Cc1cc(C)c(C)c(S(=O)(=O)Nc2cc(-c3ccc(O)c(C(=O)O)c3)cc3ccccc23)c1C [Example 2, 2-hydroxy-5-[4-[(2,3,5,6-tetramethylphenyl)sulfonylamino]-2-naphthyl]benzoic acid] | 4100
5 | Cc1cc(C)c(C)c(S(=O)(=O)Nc2cc(-c3cncc(C(=O)O)c3)cc3ccccc23)c1C [Example 3, 5-[4-[(2,3,5,6-tetramethylphenyl)sulfonylamino]-2-naphthyl]pyridine-3-carboxylic acid] | 1900
6 | Cc1cc(C)c(C)c(S(=O)(=O)Nc2cc(-c3cc(F)cc(C(=O)O)c3)cc3ccccc23)c1C [Example 5, 3-fluoro-5-[4-[(2,3,5,6-tetramethylphenyl)sulfonylamino]-2-naphthyl]benzoic acid] | 2100
7 | Cc1cc(C)c(C)c(S(=O)(=O)Nc2cc(-c3cccc(C(=O)O)c3F)cc3ccccc23)c1C [Example 6, 2-fluoro-3-[4-[(2,3,5,6-tetramethylphenyl)sulfonylamino]-2-naphthyl]benzoic acid] | 5600
8 | Cc1cc(C)c(C)c(S(=O)(=O)Nc2cc(-c3cc(Cl)cc(C(=O)O)c3)cc3ccccc23)c1C [Example 7, 3-chloro-5-[4-[(2,3,5,6-tetramethylphenyl)sulfonylamino]-2-naphthyl]benzoic acid] | 3300
9 | Cc1cc(C)c(C)c(S(=O)(=O)Nc2cc(-c3ccc(Cl)c(C(=O)O)c3)cc3ccccc23)c1C [Example 8, 2-chloro-5-[4-[(2,3,5,6-tetramethylphenyl)sulfonylamino]-2-naphthyl]benzoic acid] | 1600
10 | Cc1cc(C)c(C)c(S(=O)(=O)Nc2cc(-c3ccc(F)c(C(=O)O)c3)cc3ccccc23)c1C [Example 10, 2-fluoro-5-[4-[(2,3,5,6-tetramethylphenyl)sulfonylamino]-2-naphthyl]benzoic acid] | 1800
11 | Cc1cc(C)c(C)c(S(=O)(=O)Nc2cc(-c3cc(C(=O)O)n(C)n3)cc3ccccc23)c1C [Example 11, 2-methyl-5-[4-[(2,3,5,6-tetramethylphenyl)sulfonylamino]-2-naphthyl]pyrazole-3-carboxylic acid] | 5700
12 | Cc1cc(C)c(C)c(S(=O)(=O)Nc2cc(-c3ccc(C(=O)O)s3)cc3ccccc23)c1C [Example 12, 5-[4-[(2,3,5,6-tetramethylphenyl)sulfonylamino]-2-naphthyl]thiophene-2-carboxylic acid] | 12000
